# Measurements: patent publication US20040186022A1, “Enhanced herbicides” (priority 1999, published 2004)
# Assays:
# [1] = system: Kentucky bluegrass, velvetleaf, foxtail, tomato, potato and snapbeans
# Excerpt: (§1) The herbicides were applied in the “spray to drip” amount or at a calibrated 20-60 gallons/acre. “Spray to drip” is an uncalibrated application of fluid to foliage, where sufficient spray volume is used to sufficiently saturate the foliage surface until excess fluid begins to drip from the foliage.
# [2] = system: 60 G/a: black nightshade, redroot pigweed, lambsquarter, foxtail, velvetleaf and snapbeans; spray to drip: redroot pigweed, lambsquarter, velvetleaf and …; assay: Efficacy of 2% caprylic with succinic or ammonium succinate in an emulsification system (Emsorb 6900); format: in vivo
# Excerpt: as §1
# young potato plants = assay: Effects of desiccants and desiccant combinations with other compounds on young potato plants; format: in vivo; parameters: All evaluations (total score): scale not given here
# Excerpt: as §1
# [3] = system: 60 G/a: lambsquarter, pigweed, velvetleaf and foxtail; spray to drip: velvetleaf and foxtail; assay: Herbicidal activity of caprylic acid combined with salts of succinate +/- sodium salicylate; format: in vivo
# Excerpt: as §1
# [4] = system: 60 G/a: lambsquarter, foxtail and velvetleaf; spray to drip: snapbeans, corn and tomatoes; assay: Succinic acid enhancement of oleic acid/sodium salicylate herbicidal activity (60 G/a and spray to drip); format: in vivo
# Excerpt: as §1
# [5] = system: lambsquarter, velvetleaf, foxtail, nutsedge and potatoes; assay: Succinic acid enhancement of oleic acid/sodium salicylate herbicidal activity (spray to drip); format: in vivo
# Excerpt: as §1
# mixed weed varieties = assay: Field trial comparisons of caprylic/capric and pelargonic acids on mixed weed varieties (Example 57); format: in vivo; conditions: rating 1-5 for each of 2 plots per treatment group, 5 = complete desiccation; grasses (dominant), dandelion, pigweed, plantain and Canadian thistle
# Excerpt: as §1
# [6] = system: mixed weed varieties; Canadian thistle; assay: Field trial comparisons of caprylic/capric and pelargonic acids on mixed weed varieties (Example 58); format: in vivo; conditions: rating 1-5 for each of 2 plots per treatment group, 5 = complete desiccation
# Excerpt: as §1
# [7] = system: 60 G/a: velvetleaf, black nightshade, redroot pigweed, foxtail and snapbeans; spray to drip: black nightshade, velvetleaf, foxtail and snapbeans; assay: Efficacy of 1.5% succinic acid with oleic, caprylic or pelargonic acid in an emulsification system (Emsorb 6900); format: in vivo; parameters: Injury rating, total score for 2 evaluation, Spray to drip / Injury rating, total score for 2 evaluation, Total Rating: scale not given here
# Excerpt: as §1
# Redwood pigweed = assay: Field trial comparisons of caprylic/capric and pelargonic acids, redroot pigweed (Example 58); format: in vivo; conditions: rating 1-5 for each of 2 plots per treatment group, 5 = complete desiccation
# [8] = Measurement of pH values for test desiccants (Example 55); format: physicochemical
# Turf = assay: Synergistic relationships between succinic acid and caprylic acid (or sodium salicylate), testing turf; format: in vivo; conditions: 2 days after a single foliar application, 5 equals profound desiccation
# Excerpt: as §1
# Turf and Covergrass = assay: Effects of various compounds on caprylic acid, testing turf and covergrass; format: in vivo; conditions: 1, 3, 6, 7 and 11 days after a single foliar application at two independent sites, 5 equals profound desiccation
# Excerpt: as §1
# Turf and Shrub Foliage [9] = assay: Effects of various compounds on caprylic acid, testing turf and shrub foliage; format: in vivo; conditions: 3, 4, 6 and 7 days after a single foliar application, 5 equals profound desiccation
# Excerpt: as §1
# [10] = Measurement of pH values for test desiccants (Example 56); format: physicochemical
# soybeans [11] = assay: Synergistic relationships between succinic acid and caprylic acid at different application rates, testing soybeans; format: in vivo; conditions: 2 days after a single foliar application, average of 2 sites, soybean Stine 2250; for Overall Effect: 5 equals profound desiccation
# Excerpt: as §1
# soybeans [12] = assay: Synergistic relationships: succinic acid + caprylic acid, succinic acid + sodium salicylate, testing soybeans; format: in vivo; conditions: 3 days after a single foliar application, soybean Stine 2250
# Excerpt: as §1
# Turf and Shrub Foliage [13] = conditions: 1, 2, 4 and 7 days after a single foliar application, 5 equals profound desiccation
# Excerpt: as §1
# Cotton = conditions: 2 days after a single foliar application
# Excerpt: as §1
# [14] = system: cotton plants, DeltaPine NuCotn 33-b, open boll; assay: Synergistic relationships between 5% caprylic/capric (c/c) and succinic acid: desiccation of cotton plants; format: in vivo; conditions: footnote
# Excerpt: (§2) The herbicides were applied in the “spray to drip” amount or at a calibrated 20-60 gallons/acre. “Spray to drip” is an uncalibrated application of fluid to foliage, where sufficient spray volume is used to sufficiently saturate the foliage surface until excess fluid begins to drip from the foliage. In general, about 5 to 200 gallons/acre, preferably 20-100 gallons/acre can be effective.
# [15] = system: barnyard grass, green foxtail, sudan grass and pigweed; assay: Enhancement of RoundUp Ultra (+/- ammonium sulfate) by succinic acid, 1 pint/acre, with Sylgard 309; format: in vivo; conditions: footnote
# Excerpt: as §1
# [16] = system: cotton (DeltaPine NuCotn 33b) foliage; assay: Herbicidal activity on cotton foliage: succinic acid and caprylic/capric acid (c/c) combinations; format: in vivo; conditions: footnote
# Excerpt: as §2
# [17] = system: 60 G/a: redroot pigweed, foxtail and velvetleaf; spray to drip: foxtail, dry beans and pigweed; assay: Herbicidal activity: caprylic acid and succinic acid +/- ammonium sulfate; format: in vivo; conditions: footnote
# Excerpt: as §1
# [18] = system: 60 G/a: nightshade, pigweed, foxtail barnyard grass, sudan grass and cotton (DeltaPine NuCotn 33b); spray to drip: Kentucky bluegrass, nutsedge, barnyard …; assay: Herbicidal activities: succinic acid and caprylic/capric acid (c/c) combinations; format: in vivo; conditions: footnote
# Excerpt: as §2
# [19] = system: sudan grass, green foxtail, barnyard grass and pigweed; assay: Enhancement of RoundUp Ultra (+/- ammonium sulfate) by succinic acid, 1 quart per acre; format: in vivo; conditions: footnote
# Excerpt: as §1
# [20] = system: Cotton (DeltaPine NuCotn 33b); assay: Synergistic relationship between caprylic/capric (c/c) and succinic acid as harvest aids, cotton; format: in vivo; conditions: footnote; cotton and potatoes
# Excerpt: as §2
# [21] = system: Kentucky bluegrass, barnyard grass, crab grass, pigweed, redtop, nutsedge, wheat and foxtail; assay: Enhancement of RoundUp Ultra (+/- ammonium sulfate) by succinic acid, 1 pint/acre, no surfactant; format: in vivo; conditions: footnote
# Excerpt: as §1
# [22] = system: cotton (DeltaPine NuCotn 33b), potatoes (Snowden), pigweed, sudan grass, wheat, foxtail, dry beans and velvetleaf; assay: Synergistic relationships between 5% caprylic/capric (c/c) and succinic acid; format: in vivo; conditions: footnote
# Excerpt: as §2
# [23] = system: 40 G/a: crab grass, chickweed and common lambsquarter; 60 G/a: redtop, pigweed, foxtail; spray to drip: barnyard grass, foxtail, sudan grass and nutsedge; assay: Herbicidal combinations of caprylic/capric (c/c) or pelargonic acid with equimolar succinic acid and ammonium succinate, on weed varieties; format: in vivo; conditions: footnote
# [24] = system: 60 G/a: redroot pigweed, velvetleaf, snapbeans, cotton and potatoes; spray to drip: black nightshade, lambsquarter, foxtail and snapbeans; conditions: footnote
# Excerpt: as §1
# [25] = 60 G/a, rating 1-5 per pot, 1% Emsorb, 0.3% Hasten
smiles,measurement,setting,value
"O=C([O-])c1ccccc1O.[Na+] [1.5% sodium salicylate, sodium salicylate]","Injury rating, Spray to drip","[1]; rating 1-5 per pot, three evaluations, 30% acetone, 0.3% Sylgard 309",56.2
same,"Injury rating, Average rating per pot","[1]; scale 1-5, spray to drip",3.51
"CCCCCCCC(=O)O [2% caprylic, caprylic acid]","Injury rating, total score for 2 evaluations, Total Rating",[2]; 60 G/a plus spray to drip,123.4
same,"Injury rating, total score for 2 evaluations, 60 G/a",[2]; [25],73.6
same,Average rating per pot,[2]; scale 1-5,4.11
same,"Injury rating, total score for 2 evaluations, Spray to drip",[2]; spray to drip,49.8
same,"Injury ratings of treated plants, day 1","young potato plants; 1 day after application, 6 = complete desiccation",5
same,"Injury ratings of treated plants, day 3","young potato plants; 3 days after application, 6 = complete desiccation",5
same,"Injury ratings of treated plants, day 6","young potato plants; 6 days after application, 6 = complete desiccation",5
same,"Injury ratings of treated plants, day 17","young potato plants; 17 days after application, 6 = complete desiccation",5
same,"Injury ratings of treated plants, day 22","young potato plants; 22 days after application, 6 = complete desiccation",5.5
same,"Injury ratings of treated plants, day 27","young potato plants; 27 days after application, 6 = complete desiccation",5.5
same,"Injury ratings of treated plants, […]","young potato plants; […] after application, 6 = complete desiccation",3.5
same,All evaluations (total score),young potato plants; total of all evaluation times,34.5
same,"Total Injury ratings, Total score",[3]; 60 G/a plus spray to drip,69.2
same,"Total injury ratings, 60 G/a","[3]; 60 G/a, 8 pots/treatment, 2 evaluations, rating 1-5 per pot, 1% Emsorb 6900",61
same,"Total injury ratings, Spray to drip","[3]; spray to drip, 2 pots/treatment, velvetleaf and foxtail, 1 evaluation",8.2
"CCCCCCCC/C=C\CCCCCCCC(=O)O [2% oleic acid, oleic acid]","Total Injury rating, Total",[4]; 60 G/a plus spray to drip,45.8
same,"Total Injury rating, 60 G/a","[4]; 60 G/a, lambsquarter, foxtail and velvetleaf, rating 1-5 per pot, two evaluations",23.5
same,Average rating per pot,"[4]; scale 1-5, 60 G/a and spray to drip",1.91
same,Total injury rating (sum over pots and evaluations),"[5]; rating 1-5 per pot, two evaluations, 50% acetone, 0.3% Sylgard 309",26.4
same,"Injury rating, Average rating per pot","[5]; scale 1-5, spray to drip",2.2
"CCCCCCCCC(=O)O [3% pelargonic, pelargonic acid]",Average injury rating per plot,mixed weed varieties,4.175
same,Average injury rating per plot,[6],4.03
same,"Injury rating, total score for 2 evaluation, Total Rating",[7]; 60 G/a plus spray to drip,122.9
same,"Injury rating, total score for 2 evaluation, 60 G/a",[7]; [25],85.3
same,Average rating per pot,[7]; scale 1-5,4.39
same,"Injury rating, total score for 2 evaluation, Spray to drip",[7]; spray to drip,37.6
CCCCCCCCC(=O)O [6% pelargonic],Average injury rating per plot,Redwood pigweed,4.35
CCCCCCCC(=O)O [Caprylic Acid (1.0%)],pH Value,[8],3.93
same,Overall Effect,Turf,2
same,"Overall Effect, 10 Evaluations (average)",Turf and Covergrass,2.45
same,"Overall Effect, 29 Evaluations (average)",Turf and Shrub Foliage [9],1.05
same,pH Value,[10],3.85
same,Foliage Affected (%),soybeans [11],22.3%
same,Overall Effect,soybeans [11],4
O=C([O-])c1ccccc1O.[Na+] [Sodium Salicylate (1%)],Foliage Affected (%),soybeans [12],15-20%
same,Overall Effect,soybeans [12]; 5 equals profound desiccation,1.5
same,"Overall effect, 17 evaluations (average)",Turf and Shrub Foliage [13],1.35
O=C([O-])c1ccccc1O.[Na+] [Sodium Salicylate (1.0%)],pH Value,[8],5.63
same,Overall Effect,Turf,1.5
same,Foliage Affected (%),Cotton,<70%
O=C(O)CCC(=O)O [Succinic Acid (0.5)],Overall Effect,Turf,0
O=C(O)CCC(=O)O [Succinic Acid (1.0%)],pH Value,[8],1.85
same,Foliage Affected (%),Cotton,No effect
same,Foliage Affected (%),soybeans [11],0%
same,Overall Effect,soybeans [11],0
O=C(O)CCC(=O)O [Succinic Acid (2%)],"Overall effect, 17 evaluations (average)",Turf and Shrub Foliage [13],0.24
O=C(O)CCC(=O)O [succinic acid],Rating of succinic acid alone,[14],"Treatment of plants with succinic acid, alone, had a rating of zero"
same,Rating of succinic acid tested alone,[15],"Succinic acid tested alone had a rating of zero. RoundUp Ultra, alone or RoundUp Ultra + ammonium sulfate were synergistic with succinic acid."
same,Rating of succinic acid tested alone,[16],"Since succinic acid tested alone had a rating of zero, caprylic/capric + succinic acid was synergistic"
same,Rating of succinic acid alone,[17],"Succinic acid, alone, had a rating of zero. Caprylic acid + succinic acid was synergistic"
same,Rating of succinic acid alone,[18],"Since succinic acid, alone had a rating of zero, caprylic/capric + succinic acid was synergistic"
same,Rating of succinic acid alone,[7]; footnote,"Succinic acid, alone, had a rating of zero. Succinic acid was synergistic with oleic, caprylic and pelargonic acids"
same,Rating of succinic acid tested alone,[19],"Succinic acid tested alone had a rating of zero. RoundUp Ultra, alone or RoundUp Ultra + ammonium sulfate were synergistic with succinic acid"
same,Rating of succinic acid alone,[20],"Treatment of plants with succinic acid, alone, had a rating of zero"
same,Rating of succinic acid tested alone,[21],"Succinic acid tested alone had a rating of zero. RoundUp Ultra, alone or RoundUp Ultra + ammonia sulfate were synergistic with succinic acid"
same,Rating of succinic acid alone,[22],"Treatment of plants with succinic acid, alone, had a rating of zero"
same,Rating of additive tested alone,[23],"Since succinic acid (or ammonium succinate) tested alone had a rating of zero, pelargonic acid (or c/c) + succinic acid (or ammonium succinate) were synergistic. The exception was: 3% pelargonic acid + 1.26% ammonium succinate"
same,Rating of succinic acid alone,[24],"Succinic acid, alone, had a rating of zero. Succinic acid was synergistic with oleic, caprylic and pelargonic acids"
